Assay results taken from patent US12084437B2, “Halo-substituted piperidines as orexin receptor modulators” (AstraZeneca AB, priority 2016, dated 2024).

How the values were obtained:
OX2 = biological target: T1, OX2 (Homo sapiens, UniProt O43614); experiment: Orexin receptor cell-based functional assay, [Ca2+]i by FLIPR, CHO-OX2 cells; details: FLIPR calcium, antagonism of EC90 of [OX]
T1 construct: expressed in transfected cells; host or cells: CHO (CHO-OX2)
T1 sequence (O43614 1-444): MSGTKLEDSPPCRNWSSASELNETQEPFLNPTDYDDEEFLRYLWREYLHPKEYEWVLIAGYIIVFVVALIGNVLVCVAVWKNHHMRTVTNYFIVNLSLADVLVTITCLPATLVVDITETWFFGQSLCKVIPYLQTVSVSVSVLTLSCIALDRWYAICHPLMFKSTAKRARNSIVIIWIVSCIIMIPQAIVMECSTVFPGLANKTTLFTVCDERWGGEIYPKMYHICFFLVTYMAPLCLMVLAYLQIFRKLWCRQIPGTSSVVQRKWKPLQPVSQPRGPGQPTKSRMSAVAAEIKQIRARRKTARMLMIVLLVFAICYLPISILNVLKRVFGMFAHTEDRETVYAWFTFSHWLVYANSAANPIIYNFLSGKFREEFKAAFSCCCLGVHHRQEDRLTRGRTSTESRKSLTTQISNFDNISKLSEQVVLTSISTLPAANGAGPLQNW
Method: (§1) Measurement of [Ca^2+]i using a FLIPR: CHO-OX1 or CHO-OX2 cells were seeded into black-walled clear-base 384-well plates (Corning, catalog #3712) at a density of 20,000 cells per well in F12-K medium supplemented with 10% FBS and then incubated in a 5% CO2, 37° C. incubator overnight to reach 90% confluency. The cells were incubated with equal volume of calcium6 loading buffer (Molecular Devices, Inc.) containing 2.5 mM probenecid at 37° C. for 2 h, followed by test compounds (dose-range 0.1 nM-10 μM) for another 30 min. The plates were then placed into a FLIPR (Molecular Devices, Inc.) to monitor fluorescence (λ excitation 488 nm, λ emission 540 nm) before and after the addition of EC90 of [OX]. Results for exemplary compounds of Formulae (I), (Ia), (Ib), (II), (IIa), (III), (IIIa), (IV), (IVa), (V), or (Va) are shown in Table 3.

OX1 = biological target: T2, OX1 (Homo sapiens, UniProt O43613); experiment: Orexin receptor cell-based functional assay, [Ca2+]i by FLIPR, CHO-OX1 cells; details: FLIPR calcium, antagonism of EC90 of [OX], read-out: OXI, IC50
T2 construct: expressed in transfected cells; host or cells: CHO (CHO-OX1)
T2 sequence (O43613 1-425): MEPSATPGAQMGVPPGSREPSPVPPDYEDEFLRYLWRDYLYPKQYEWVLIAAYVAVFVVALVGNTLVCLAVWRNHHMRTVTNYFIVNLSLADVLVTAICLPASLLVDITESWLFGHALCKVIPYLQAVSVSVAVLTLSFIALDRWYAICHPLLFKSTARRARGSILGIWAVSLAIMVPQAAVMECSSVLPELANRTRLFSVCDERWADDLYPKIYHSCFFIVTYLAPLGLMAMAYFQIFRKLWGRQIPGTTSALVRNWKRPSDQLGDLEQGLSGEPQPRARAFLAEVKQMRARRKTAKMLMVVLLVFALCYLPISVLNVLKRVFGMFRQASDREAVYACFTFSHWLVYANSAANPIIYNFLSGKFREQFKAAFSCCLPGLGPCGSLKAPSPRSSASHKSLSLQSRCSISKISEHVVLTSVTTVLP
Method: as §1, with “[OX].” for “[OX]. Results for exemplary compounds of Formulae (I), (Ia), (Ib), (II), (IIa), (III), (IIIa), (IV), (IVa), (V), or (Va) are shown in Table 3.”

IC50 (OX2)	IC50 (OX1)	SMILES
4700 nM	4 nM	C[C@@H]1CC(F)(F)CN(C(=O)c2nn(C)cc2-c2ccc(Cl)cc2)[C@@H]1CNc1ncc(C(F)(F)F)cn1 [Compound 33]
> 5000 nM	30 nM	Cc1ccc(-c2ncccn2)c(C(=O)N2CC(F)(F)C[C@@H](C)[C@H]2CNc2ncc(C(F)(F)F)cn2)c1 [Compound 55, ((2S,3R)-5,5-difluoro-3-methyl-2-(((5-(trifluoromethyl)pyrimidin-2-yl)amino)methyl)piperidin-1-yl)(5-methyl-2-(pyrimidin-2-yl)phenyl)methanone]
> 5000 nM	7 nM	C[C@@H]1CC(F)(F)CN(C(=O)c2nn(C)cc2-c2ccccc2)[C@@H]1CNc1ncc(Cl)cn1 [Compound 22]
> 5000 nM	4 nM	Cc1ccc(-n2nccn2)c(C(=O)N2CC(F)(F)C[C@@H](C)[C@H]2CNc2ccc(C(F)(F)F)cn2)n1 [Compound 174]
> 5000 nM	1160 nM	Cc1cccnc1-c1cn(C)nc1C(=O)N1CC(F)(F)C[C@@H](C)[C@H]1CNc1ncc(C(F)(F)F)cn1 [Compound 39]
> 5000 nM	7 nM	Cc1cccc(-c2cn(C)nc2C(=O)N2CC(F)(F)C[C@@H](C)[C@H]2CNc2cnc(C(F)(F)F)cn2)n1 [Compound 132]
> 5000 nM	4 nM	C[C@@H]1CC(F)(F)CN(C(=O)c2nn(C)cc2-c2ncc(F)cn2)[C@@H]1CNc1ncc(C(F)(F)F)cn1 [Compound 217, ((2S,3R)-5,5-difluoro-3-methyl-2-(((5-(trifluoromethyl)pyrimidin-2-yl)amino)methyl)piperidin-1-yl)(4-(5-fluoropyrimidin-2-yl)-1-methyl-1H-pyrazol-3-yl)methanone]
1000 nM	4 nM	COc1cccc(-c2cn(C)nc2C(=O)N2CC(F)(F)C[C@@H](C)[C@H]2CNc2cnc(C(F)(F)F)cn2)c1 [Compound 124]
> 5000 nM	7 nM	Cc1cccc(-c2cn(C)nc2C(=O)N2CC(F)(F)C[C@@H](C)[C@H]2CNc2ncc(C(F)(F)F)cn2)n1 [Compound 46]
> 5000 nM	206 nM	C[C@@H]1CC(F)(F)CN(C(=O)c2nn(C)cc2-c2cccnc2)[C@@H]1CNc1ncc(C(F)(F)F)cn1 [Compound 90]
> 5000 nM	437 nM	C[C@@H]1CC(F)(F)CN(C(=O)c2nn(C)cc2-c2ncccn2)[C@@H]1COc1ncc(C(F)(F)F)cc1F [Compound 247]
> 5000 nM	102 nM	C[C@@H]1CC(F)(F)CN(C(=O)c2nn(C)nc2-c2ccc(F)cc2)[C@@H]1CNc1ncc(C(F)(F)F)cn1 [Compound 81]
> 5000 nM	82 nM	CCn1cc(-c2ncccn2)c(C(=O)N2CC(F)(F)C[C@@H](C)[C@H]2CNc2ncc(C(F)(F)F)cn2)n1 [Compound 232, ((2S,3R)-5,5-difluoro-3-methyl-2-(((5-(trifluoromethyl)pyrimidin-2-yl)amino)methyl)piperidin-1-yl)(1-ethyl-4-(pyrimidin-2-yl)-1H-pyrazol-3-yl)methanone]
> 5000 nM	6 nM	Cc1ccc(-c2sc(C)nc2C(=O)N2CC(F)(F)C[C@@H](C)[C@H]2CNc2ccc(C(F)(F)F)cn2)cc1 [Compound 186]
> 5000 nM	60 nM	Cc1ccc(-c2ccccn2)c(C(=O)N2CC(F)(F)C[C@@H](C)[C@H]2CNc2ncc(C(F)(F)F)cn2)n1 [Compound 16, ((2S,3R)-5,5-difluoro-3-methyl-2-(((5-(trifluoromethyl)pyrimidin-2-yl)amino)methyl)piperidin-1-yl)(6′-methyl-[2,3′-bipyridin]-2′-yl)methanone]
> 5000 nM	52 nM	C[C@@H]1CC(F)(F)CN(C(=O)c2nn(C)cc2-c2ncccn2)[C@@H]1COc1cnc(C(F)(F)F)cn1 [Compound 223, ((2S,3R)-5,5-difluoro-3-methyl-2-(((5-(trifluoromethyl)pyrazin-2-yl)oxy)methyl)piperidin-1-yl)(1-methyl-4-(pyrimidin-2-yl)-1H-pyrazol-3-yl)methanone]

IC50 (OX2)	IC50 (OX1)	SMILES
3000 nM	7 nM	Cc1cccc(-c2sc(C)nc2C(=O)N2CC(F)(F)C[C@@H](C)[C@H]2CNc2ccc(C(F)(F)F)cn2)c1 [Compound 187]
> 5000 nM	19 nM	C[C@@H]1CC(F)(F)CN(C(=O)c2nn(C)cc2-c2ccccn2)[C@@H]1CNc1ncc(C(F)(F)F)cn1 [Compound 36]
> 5000 nM	43 nM	C[C@@H]1CC(F)(F)CN(C(=O)c2cc(F)ccc2-c2ncccn2)[C@@H]1CNc1ncc(C(F)(F)F)cn1 [Compound 54]
> 5000 nM	26 nM	C[C@@H]1CC(F)(F)CN(C(=O)c2nn(C)cc2-c2ncccn2)[C@@H]1COc1ncc(C(F)(F)F)cn1 [Compound 222, ((2S,3R)-5,5-difluoro-3-methyl-2-(((5-(trifluoromethyl)pyrimidin-2-yl)oxy)methyl)piperidin-1-yl)(1-methyl-4-(pyrimidin-2-yl)-1H-pyrazol-3-yl)methanone]
> 5000 nM	4 nM	Cc1ccc(-c2sc(C)nc2C(=O)N2CC(F)(F)C[C@@H](C)[C@H]2CNc2ncc(C(F)(F)F)cn2)cc1 [Compound 64]
> 5000 nM		Cc1cccc(-c2sc(C)nc2C(=O)N2CC(F)(F)C[C@@H](C)[C@H]2CNc2ncc(C(F)(F)F)cn2)c1 [Compound 63]
	17 nM	C[C@@H]1CC(F)(F)CN(C(=O)c2cc(Cl)ccc2-c2nnn(C)n2)[C@@H]1CNc1ccc(C(F)(F)F)cn1 [Compound 182]
	5 nM	Cc1nc(C(=O)N2CC(F)(F)C[C@@H](C)[C@H]2CNc2cnc(C(F)(F)F)cn2)c(-c2ccc(F)cc2)s1 [Compound 137]
> 5000 nM		C[C@@H]1CC(F)(F)CN(C(=O)c2nn(C)cc2-c2ccccc2F)[C@@H]1CNc1ncc(C(F)(F)F)cn1 [Compound 23]
	22 nM	Cc1ccc(-c2cn(C)nc2C(=O)N2CC(F)(F)C[C@@H](C)[C@H]2COc2ccc(C(F)(F)F)cn2)nc1 [Compound 206, ((2S,3R)-5,5-difluoro-3-methyl-2-(((5-(trifluoromethyl)pyridin-2-yl)oxy)methyl)piperidin-1-yl)(1-methyl-4-(5-methylpyridin-2-yl)-1H-pyrazol-3-yl)methanone]
> 5000 nM		Cc1ccc(-c2sc(C)nc2C(=O)N2CC(F)(F)C[C@@H](C)[C@H]2CNc2ccc(C(F)(F)F)cn2)nc1 [Compound 197]
> 5000 nM		C[C@@H]1CC(F)(F)CN(C(=O)c2nn(C)cc2-c2ncc(F)cn2)[C@@H]1COc1ncc(C(F)(F)F)cc1F [Compound 245]
> 5000 nM		C[C@@H]1CC(F)(F)CN(C(=O)c2nn(C)cc2-c2ccc(F)cc2)[C@@H]1CNc1ncc(C(F)(F)F)cn1 [Compound 30]
	6 nM	COc1ccc(-c2sc(C)nc2C(=O)N2CC(F)(F)C[C@@H](C)[C@H]2CNc2cnc(C(F)(F)F)cn2)cc1 [Compound 141]
> 5000 nM		Cc1nc(C(=O)N2CC(F)(F)C[C@@H](C)[C@H]2CNc2cnc(C(F)(F)F)cn2)c(-c2cc(F)ccn2)s1 [Compound 150]
> 5000 nM		C[C@@H]1CC(F)(F)CN(C(=O)c2nn(C)cc2-c2ncc(F)cn2)[C@@H]1COc1cnc(C(F)(F)F)cn1 [Compound 244]
